Laboratory results as given in patent US11312724B2 (ASCENTAGE PHARMA (SUZHOU) CO., LTD., priority 2021, dated 2022).

What was measured:
[1] = tested on: MIA PaCa-2 cell; test: Cell proliferation assay (Celltiter-Glo), MIA PaCa-2; assay type: cell-based; conditions: Homo sapiens, MIA PaCa-2, 72 h, 3 days
Procedure: (§1) Cell Proliferation Assay:
(§2) NCI-H358 cell and MIA PaCa-2 cell was cultured in RPMI-1640 supplemented with 10% FBS in humidified incubator at 37° C., 5% CO2. To asses the effect of Compounds of the Disclosure on cell proliferation, exponentially growing cells (5000 cells/well) were plated onto 96-well plates. After cell seeding, a representative Compounds of the Disclosure were added to the cell media (in concentrations ranging from 0 to 10 μM, 3/dilution series). After 3 days, 30 μL Celltiter-Glo reagent was added, and the luminescent signal was determined according to supplier's instruction. The dose response curves and IC50 values were generated using Prism.

[2] = tested on: NCI-H358 cell; test: Cell proliferation assay (Celltiter-Glo), NCI-H358; assay type: cell-based; conditions: Homo sapiens, NCI-H358, 72 h, 3 days
Procedure: as §1, §2

| SMILES | IC50 [1] | IC50 [2] |
| --- | --- | --- |
| C=CC(=O)N1CCN(c2nc(OC[C@@H]3CCCCN3C)nc3c2CCC2(CCCc4ccccc42)C3)C[C@@H]1CC#N (stereo partly drawn) [Cpd. No. 18, 2-((2S)-1-acryloyl-4-(2′-(((S)-1-methylpiperidin-2-yl)methoxy)-3,4,5′,8′-tetrahydro-2H,6′H-spiro[naphthalene-1,7′-quinazolin]-4′-yl)piperazin-2-yl)acetonitrile] | 110 nM | 160 nM |
| C=CC(=O)N1CCN(c2nc(OCCCN3CCOCC3)nc3c2CCC2(CCCc4ccccc42)C3)C[C@@H]1CC#N (stereo partly drawn) [Cpd. No. 19, 2-((2S)-1-acryloyl-4-(2′-(3-morpholinopropoxy)-3,4,5′,8′-tetrahydro-2H,6′H-spiro[naphthalene-1,7′-quinazolin]-4′-yl)piperazin-2-yl)acetonitrile] | 110 nM | 130 nM |
| C=CC(=O)N1CCN(c2nc(OC[C@@H]3CN(C)CCO3)nc3c2CCC2(CCCc4ccccc42)C3)C[C@@H]1CC#N (stereo partly drawn) [Cpd. No. 20, 2-((2S)-1-acryloyl-4-(2′-(((S)-4-methylmorpholin-2-yl)methoxy)-3,4,5′,8′-tetrahydro-2H,6′H-spiro[naphthalene-1,7′-quinazolin]-4′-yl)piperazin-2-yl)acetonitrile] | 46 nM | 72 nM |
| C=CC(=O)N1CCN(c2nc(OC[C@@H]3CCCN3C)nc3c2CCC2(CCOc4ccccc42)C3)C[C@@H]1CC#N (stereo partly drawn) [Cpd. No. 21, 2-((2S)-1-acryloyl-4-(2′-(((S)-1-methylpyrrolidin-2-yl)methoxy)-5′,8′-dihydro-6′H-spiro[chromane-4,7′-quinazolin]-4′-yl)piperazin-2-yl)acetonitrile] | 440 nM | 470 nM |
| C=CC(=O)N1CCN(c2nc(OC[C@@H]3CCCN3C)nc3c2CCC2(CCOc4c(Cl)cccc42)C3)C[C@@H]1CC#N (stereo partly drawn) [Cpd. No. 22, 2-((2S)-1-acryloyl-4-(8-chloro-2′-(((S)-1-methylpyrrolidin-2-yl)methoxy)-5′,8′-dihydro-6′H-spiro[chromane-4,7′-quinazolin]-4′-yl)piperazin-2-yl)acetonitrile] | 490 nM | 940 nM |
| C=CC(=O)N1CCN(c2nc(OC[C@@H]3CCCN3C)nc3c2CCC2(CCOc4c(Cl)cc(Cl)cc42)C3)C[C@@H]1CC#N (stereo partly drawn) [Cpd. No. 23, 2-((2S)-1-acryloyl-4-(6,8-dichloro-2′-(((S)-1-methylpyrrolidin-2-yl)methoxy)-5′,8′-dihydro-6′H-spiro[chromane-4,7′-quinazolin]-4′-yl)piperazin-2-yl)acetonitrile] | 740 nM | 1240 nM |
| C=CC(=O)N1CCN(c2nc(OC[C@@H]3CCCN3C)nc3c2CCC2(COCc4ccccc42)C3)C[C@@H]1CC#N (stereo partly drawn) [Cpd. No. 24, 2-((2S)-1-acryloyl-4-(2′-(((S)-1-methylpyrrolidin-2-yl)methoxy)-5′,8′-dihydro-6′H-spiro[isochromane-4,7′-quinazolin]-4′-yl)piperazin-2-yl)acetonitrile] | 6 nM | 11 nM |
| C=CC(=O)N1CCN(c2nc(OC[C@@H]3CCCN3C)nc3c2CCC2(C3)CC(C)Oc3ccccc32)C[C@@H]1CC#N (stereo partly drawn) [Cpd. No. 25, 2-((2S)-1-acryloyl-4-(2-methyl-2′-(((S)-1-methylpyrrolidin-2-yl)methoxy)-5′,8′-dihydro-6′H-spiro[chromane-4,7′-quinazolin]-4′-yl)piperazin-2-yl)acetonitrile] | 1280 nM | 1840 nM |
| C=CC(=O)N1CCN(c2nc(OC[C@@H]3CCCN3C)nc3c2CCC2(COCc4cccc(F)c42)C3)C[C@@H]1CC#N (stereo partly drawn) [Cpd. No. 27, 2-((2S)-1-acryloyl-4-(5-fluoro-2′-(((S)-1-methylpyrrolidin-2-yl)methoxy)-5′,8′-dihydro-6′H-spiro[isochromane-4,7′-quinazolin]-4′-yl)piperazin-2-yl)acetonitrile] | 19 nM | 55 nM |
| C=CC(=O)N1C2CCC1CN(c1nc(OC[C@@H]3CCCN3C)nc3c1CCC1(COCc4cccc(F)c41)C3)C2 (stereo partly drawn) [Cpd. No. 29, 1-(3-(5-fluoro-2′-(((S)-1-methylpyrrolidin-2-yl)methoxy)-5′,8′-dihydro-6′H-spiro[isochromane-4,7′-quinazolin]-4′-yl)-3,8-diazabicyclo[3.2.1]octan-8-yl)prop-2-en-1-one] | > 10000 nM | 8100 nM |
| C=CC(=O)N1CCN(c2nc(OC[C@@H]3CCCN3C)nc3c2CCC2(C3)CN(C)Cc3ccccc32)C[C@@H]1CC#N (stereo partly drawn) [Cpd. No. 30, 2-((2S)-1-acryloyl-4-(2-methyl-2′-(((S)-1-methylpyrrolidin-2-yl)methoxy)-2,3,5′,8′-tetrahydro-1H,6′H-spiro[isoquinoline-4,7′-quinazolin]-4′-yl)piperazin-2-yl)acetonitrile] | 4780 nM | 2060 nM |
| C=CC(=O)N1CCN(c2nc(OC[C@@H]3CCCN3C)nc3c2CCC2(C3)CS(=O)(=O)Cc3ccccc32)C[C@@H]1CC#N (stereo partly drawn) [Cpd. No. 31, 2-((2S)-1-acryloyl-4-(2′-(((S)-1-methylpyrrolidin-2-yl)methoxy)-2,2-dioxido-5′,8′-dihydro-6′H-spiro[isothiochromane-4,7′-quinazolin]-4′-yl)piperazin-2-yl)acetonitrile] | > 10000 nM | > 10000 nM |
| C=CC(=O)N1CCN(c2nc(OC[C@@H]3CCCN3C)nc3c2CCC2(COC(C)c4ccccc42)C3)C[C@@H]1CC#N (stereo partly drawn) [Cpd. No. 32, 2-((2S)-1-acryloyl-4-(1-methyl-2′-(((S)-1-methylpyrrolidin-2-yl)methoxy)-5′,8′-dihydro-6′H-spiro[isochromane-4,7′-quinazolin]-4′-yl)piperazin-2-yl)acetonitrile] | 22 nM | 83 nM |
| C=CC(=O)N1CCN(c2nc(OC[C@@H]3CCCN3C)nc3c2CCC2(COC(C(F)(F)F)c4ccccc42)C3)C[C@@H]1CC#N (stereo partly drawn) [Cpd. No. 33, 2-((2S)-1-acryloyl-4-(2′-(((S)-1-methylpyrrolidin-2-yl)methoxy)-1-(trifluoromethyl)-5′,8′-dihydro-6′H-spiro[isochromane-4,7′-quinazolin]-4′-yl)piperazin-2-yl)acetonitrile] | 30 nM | 45 nM |
| C=CC(=O)N1CCN(c2nc(OC[C@@H]3CCCN3C)nc3c2CCC2(COC(C)(C)c4ccccc42)C3)C[C@@H]1CC#N (stereo partly drawn) [Cpd. No. 34, 2-((2S)-1-acryloyl-4-(1,1-dimethyl-2′-(((S)-1-methylpyrrolidin-2-yl)methoxy)-5′,8′-dihydro-6′H-spiro[isochromane-4,7′-quinazolin]-4′-yl)piperazin-2-yl)acetonitrile] | 750 nM | 1350 nM |
| C=CC(=O)N1CCN(c2nc(OC[C@@H]3CCCN3C)nc3c2CCC2(COC(C)c4c(F)cccc42)C3)C[C@@H]1CC#N (stereo partly drawn) [Cpd. No. 35, 2-((2S)-1-acryloyl-4-(8-fluoro-1-methyl-2′-(((S)-1-methylpyrrolidin-2-yl)methoxy)-5′,8′-dihydro-6′H-spiro[isochromane-4,7′-quinazolin]-4′-yl)piperazin-2-yl)acetonitrile] | 20 nM | 43 nM |
| C=C(F)C(=O)N1CCN(c2nc(OC[C@@H]3CCCN3C)nc3c2CCC2(COC(C)c4c(F)cccc42)C3)C[C@@H]1CC#N (stereo partly drawn) [Cpd. No. 36, 2-((2S)-4-(8-fluoro-1-methyl-2′-(((S)-1-methylpyrrolidin-2-yl)methoxy)-5′,8′-dihydro-6′H-spiro[isochromane-4,7′-quinazolin]-4′-yl)-1-(2-fluoroacryloyl)piperazin-2-yl)acetonitrile] | 160 nM | 260 nM |
| C=CC(=O)N1CCN(c2nc(OC[C@@H]3CCCN3C)nc3c2CCC2(C3)CN(C)C(=O)c3ccccc32)C[C@@H]1CC#N (stereo partly drawn) [Cpd. No. 37, 2-((2S)-1-acryloyl-4-(2-methyl-2′-(((S)-1-methylpyrrolidin-2-yl)methoxy)-1-oxo-2,3,5′,8′-tetrahydro-1H,6′H-spiro[isoquinoline-4,7′-quinazolin]-4′-yl)piperazin-2-yl)acetonitrile] | > 10000 nM | > 10000 nM |
| C=CC(=O)N1CCN(c2nc(OC[C@@H]3CCCN3C)nc3c2CCC2(C3)CC3(CC3)c3c(F)cccc32)C[C@@H]1CC#N (stereo partly drawn) [Cpd. No. 38, 2-((2S)-1-acryloyl-4-(4′-fluoro-2″-(((S)-1-methylpyrrolidin-2-yl)methoxy)-5″,8″-dihydro-2′H,6″H-dispiro[cyclopropane-1,3′-indene-1′,7″-quinazolin]-4″-yl)piperazin-2-yl)acetonitrile] | 93 nM | 290 nM |
| C=CC(=O)N1CCN(c2nc(OC[C@@H]3CCCN3C)nc3c2CCC2(C3)c3cccc(F)c3C3CC32)C[C@@H]1CC#N (stereo partly drawn) [Cpd. No. 39, 2-((2S)-1-acryloyl-4-(2-fluoro-2′-(((S)-1-methylpyrrolidin-2-yl)methoxy)-1a,5′,6a,8′-tetrahydro-1H,6′H-spiro[cyclopropa[a]indene-6,7′-quinazolin]-4′-yl)piperazin-2-yl)acetonitrile] | 370 nM | 670 nM |
| COC/C=C/C(=O)N1CCN(c2nc(OC[C@@H]3CCCN3C)nc3c2CCC2(CCc4ccccc42)C3)C[C@@H]1CC#N (stereo partly drawn) [Cpd. No. 40, 2-((2S)-1-((E)-4-methoxybut-2-enoyl)-4-(2′-(((S)-1-methylpyrrolidin-2-yl)methoxy)-2,3,5′,8′-tetrahydro-6′H-spiro[indene-1,7′-quinazolin]-4′-yl)piperazin-2-yl)acetonitrile] | 440 nM | 560 nM |
| CN1CCC[C@H]1COc1nc2c(c(N3CCN(C(=O)/C=C/CN4CC(F)C4)[C@@H](CC#N)C3)n1)CCC1(CCc3ccccc31)C2 (stereo partly drawn) [Cpd. No. 41, 2-((2S)-1-((E)-4-(3-fluoroazetidin-1-yl)but-2-enoyl)-4-(2′-(((S)-1-methylpyrrolidin-2-yl)methoxy)-2,3,5′,8′-tetrahydro-6′H-spiro[indene-1,7′-quinazolin]-4′-yl)piperazin-2-yl)acetonitrile] | 91 nM | 320 nM |
